What was measured:
[1] = target: Nanoluciferase-BRD9 fusion protein (Homo sapiens (Human), UniProt Q9H8M2); experiment: SYO1 BRD9 NanoLuc degradation assay; format: cell-based; settings: Table 5A, SYO-1 cells expressing 3×FLAG-NLuc-BRD9, 6 hours
Summary of the method: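 Degradation was read as loss of nanoluciferase signal (Nano-Glo) after 6 h compound exposure in a stable SYO-1 line carrying 3×FLAG-NLuc-BRD9 (8000 cells/well). Normalised between DMSO (high) and a 1 μM known BRD9 degrader (low).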

[2] = target: BRD9 bromodomain (Homo sapiens (Human), UniProt Q9H8M2); experiment: BRD9 bromodomain TR-FRET competition binding assay; settings: Table 4; competition with biotinylated ligand, 3 nM Flag-BRD9, 90 minutes
Experimental: Procedure: His-Flag-BRD9 (P133-K239; Swiss Prot Q9H8M2; SEQ ID NO:1 mgsshhhhhhenlyfq/gdykddddkgslevlfqg/[…] […]) was cloned, expressed, purified, and then treated with TEV protease. Cleaved His tag was removed by purification. The binding of a biotinylated small molecule ligand of BRD9 was assessed via the LANCE® TR-FRET platform (PerkinElmer), and the compounds were assayed for inhibitory activity against this interaction.
A mixture of biotinylated-ligand and SureLight™ Allophycocyanin-Streptavidin (APC-SA, PerkinElmer AD0201) in 50 mM HEPES (pH 7.4), 50 mM NaCl, 1 mM TCEP (pH 7), 0.01% (v/v) Tween-20, 0.01% (w/v) bovine serum albumin was added to a white 384-well PerkinElmer Proxiplate Plus plate. DMSO or 3-fold serially diluted compounds were then added to the Proxiplate followed by addition of Flag-BRD9. After a 10-minute incubation at room temperature, Eu-W1024 anti-FLAG (PerkinElmer, AD0273) was added. The final reaction mixture that contained 3.75 nM biotinylated ligand, 3 nM Flag-BRD9, 7.5 nM SureLight™ Allophycocyanin-Streptavidin, and 0.2 nM Eu-W1024 anti-FLAG was incubated at room temperature for 90 minutes.
Results: The plates were then read on a PerkinElmer Envision plate reader to determine the ratio of emission at 665 nm over 615 nm. […]

Chain of Nanoluciferase-BRD9 fusion protein (Q9H8M2 whole entry, the tested form may be a part): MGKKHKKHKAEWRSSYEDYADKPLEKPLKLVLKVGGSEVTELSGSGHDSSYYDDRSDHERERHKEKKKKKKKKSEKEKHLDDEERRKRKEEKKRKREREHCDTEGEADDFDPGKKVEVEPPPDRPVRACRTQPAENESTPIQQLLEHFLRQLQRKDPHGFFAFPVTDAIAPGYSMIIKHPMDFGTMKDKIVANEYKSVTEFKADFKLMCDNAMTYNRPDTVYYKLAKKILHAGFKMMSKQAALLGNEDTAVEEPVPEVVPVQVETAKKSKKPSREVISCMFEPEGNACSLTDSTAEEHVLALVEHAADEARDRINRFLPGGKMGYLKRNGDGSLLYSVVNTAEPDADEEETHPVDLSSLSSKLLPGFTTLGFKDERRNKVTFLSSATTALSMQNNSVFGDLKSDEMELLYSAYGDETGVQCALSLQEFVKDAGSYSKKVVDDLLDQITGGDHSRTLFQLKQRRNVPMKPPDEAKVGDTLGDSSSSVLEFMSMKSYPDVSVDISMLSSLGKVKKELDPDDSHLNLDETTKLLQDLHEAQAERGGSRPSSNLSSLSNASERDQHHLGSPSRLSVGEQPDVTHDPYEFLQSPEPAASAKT
Chain of BRD9 bromodomain (Q9H8M2 133-239): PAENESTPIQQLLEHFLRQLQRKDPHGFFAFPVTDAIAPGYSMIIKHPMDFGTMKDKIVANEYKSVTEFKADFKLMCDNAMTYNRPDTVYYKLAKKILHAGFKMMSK

IC50 [1] [nM] | IC50 [2] [nM] | DC50 ([1]; read-out: SYO1 BRD9-NanoLuc degradation IC50) [nM] | SMILES
< 10 | < 10 | – | COc1cc(-c2cn(C)c(=O)c3cnccc23)cc(OC)c1CN1CCC2(CC1)CN(C(=O)CCCCOc1cccc3c1C(=O)N(C1CCC(=O)NC1=O)C3=O)CCO2 (stereo not shown) [Compound D40, 4-[[5-(9-[[2,6-dimethoxy-4-(2-methyl-1-oxo-2,7-naphthyridin-4-yl)phenyl]methyl]-1-oxa-4,9-diazaspiro[5.5]undecan-4-yl)-5-oxopentyl]oxy]-2-(2,6-dioxopiperidin-3-yl)isoindole-1,3-dione formic acid]
– | < 10 | 10 to 100 | COc1cc(-c2cn(C)c(=O)c3cnccc23)cc(OC)c1CN1CCC2(CC1)CN(C(=O)COc1cccc3c1C(=O)N(C1CCC(=O)NC1=O)C3=O)CCO2 (stereo not shown) [Compound D41, 4-[2-(9-[[2,6-dimethoxy-4-(2-methyl-1-oxo-2,7-naphthyridin-4-yl)phenyl]methyl]-1-oxa-4,9-diazaspiro[5.5]undecan-4-yl)-2-oxoethoxy]-2-(2,6-dioxopiperidin-3-yl)isoindole-1,3-dione formic acid]
< 10 | < 10 | – | COc1cc(-c2cn(C)c(=O)c3cnccc23)cc(OC)c1CN(C)CCCN1CCC(Oc2ccc3c(c2)C(=O)N(C2CCC(=O)NC2=O)C3=O)CC1 (stereo not shown) [Compound D52, 5-((1-(3-((2,6-dimethoxy-4-(2-methyl-1-oxo-1,2-dihydro-2,7-naphthyridin-4-yl)benzyl) (methyl)amino)propyl)piperidin-4-yl)oxy)-2-(2,6-dioxopiperidin-3-yl)isoindoline-1,3-dione formic acid]
< 10 | < 10 | – | COc1cc(-c2cn(C)c(=O)c3cnccc23)cc(OC)c1CN1CCN(CCCOc2ccc3c(c2)C(=O)N(C2CCC(=O)NC2=O)C3=O)CC1 (stereo not shown) [Compound D53, 5-[3-(4-[[2,6-dimethoxy-4-(2-methyl-1-oxo-2,7-naphthyridin-4-yl)phenyl]methyl]piperazin-1-yl)propoxy]-2-(2,6-dioxopiperidin-3-yl)isoindole-1,3-dione]
100 to 1000 | 10 to 100 | – | COc1cc(-c2cn(C)c(=O)c3cnccc23)cc(OC)c1CN(C)CC12CC(C(=O)NCCOCCOCCNc3cccc4c3C(=O)N(C3CCC(=O)NC3=O)C4=O)(C1)C2 (stereo not shown) [Compound D55, 3-[([[2,6-dimethoxy-4-(2-methyl-1-oxo-2,7-naphthyridin-4-yl)phenyl]methyl](methyl)amino)methyl]-N-[2-[2-(2-[[2-(2,6-dioxopiperidin-3-yl)-1,3-dioxoisoindol-4-yl]amino]ethoxy)ethoxy]ethyl]bicyclo[1.1.1]pentane-1-carboxamide]
< 10 | < 10 | – | COc1cc(-c2cn(C)c(=O)c3cnccc23)cc(OC)c1CN(C)CC12CC(C(=O)NCCCCCNc3cccc4c3C(=O)N(C3CCC(=O)NC3=O)C4=O)(C1)C2 (stereo not shown) [Compound D56, 3-[([[2,6-dimethoxy-4-(2-methyl-1-oxo-2,7-naphthyridin-4-yl)phenyl]methyl](methyl)amino)methyl]-N-(5-[[2-(2,6-dioxopiperidin-3-yl)-1,3-dioxoisoindol-4-yl]amino]pentyl)bicyclo[1.1.1]pentane-1-carboxamide]

SMILES | IC50 [1] [nM] | IC50 [2] [nM] | DC50 ([1]; read-out: SYO1 BRD9-NanoLuc degradation IC50) [nM]
COc1cc(-c2cn(C)c(=O)c3cnccc23)cc(OC)c1CN1CCC2(CC1)CN(C(=O)CCCOc1cccc3c1C(=O)N(C1CCC(=O)NC1=O)C3=O)CCO2 (stereo not shown) [Compound D39, 4-[4-(9-[[2,6-dimethoxy-4-(2-methyl-1-oxo-2,7-naphthyridin-4-yl)phenyl]methyl]-1-oxa-4,9-diazaspiro[5.5]undecan-4-yl)-4-oxobutoxy]-2-(2,6-dioxopiperidin-3-yl)isoindole-1,3-dione] | < 10 | < 10 | –
COc1cc(-c2cn(C)c(=O)c3cc(O)ccc23)cc(OC)c1CN1CCC2(CC1)CN(C(=O)CCCOc1cccc3c1C(=O)N(C1CCC(=O)NC1=O)C3=O)CCO2 (stereo not shown) [Compound D54, 2-(2,6-dioxopiperidin-3-yl)-4-[4-(9-[[4-(7-hydroxy-2-methyl-1-oxoisoquinolin-4-yl)-2,6-dimethoxyphenyl]methyl]-1-oxa-4,9-diazaspiro[5.5]undecan-4-yl)-4-oxobutoxy]isoindole-1,3-dione formic acid] | 10 to 100 | 10 to 100 | –
